Consider 2 substances from patent publication US20050043262A1, “Novel specific inhibitor of the cyclin kinase inhibitor p21Waf1/Cip1 and methods of using the inhibitor” (priority 2000, published 2005).

Data set [1] has as its system T47D cells. Nature of the data set: Nuclear morphology (Hoechst 33258) in T47D cells. Conditions: serum stimulated 24 hours after lipofection. It counts as cell-based, human. The protocol: Evaluation of Nuclear Morphology: Cells were seeded in 6-well culture dishes and treated with ODNs as described. The cells were then immersed in methanol for at least 10 min. Cells were stained in 1 μg/ml Hoechst 33258 in water with 1% nonfat dry milk. After staining for 8-10 min, the cells were rinsed in water and dried completely. Nuclear morphology was visually evaluated by fluorescence microscopy.
Apoptosis is the end result of an elaborate cascade of molecular events that ultimately result in programmed cell death; thus, a variety of tests are generally used to determine whether apoptosis is occurring. The methods to study apoptosis were employed: (a) assessment of nuclear morphology; (b) PARP cleavage; and (c) caspase-3 cleavage. Serum-starved cells were transfected with antisense p21 ODN or the control ODN, fixed, stained with Hoechst 33258, and examined under UV light. MCF7 and T47D cells were grown to confluence, serum starved for 24 hours, and lipofected with antisense p21 or control ODN. The cells were subsequently serum stimulated for another 24 hours, fixed, stained with Hoechst 33258, and examined under UV light at X400.

Data set [2] relates to caspase-3. Briefly: Caspase-3 activation (cleavage product) by Western blot in VSM cells. Format: cell-based, rat. How it is done:
FIGS. 19A and B depict how Caspase-3 is activated by antisense oligonucleotide to p21 but not early after radiation or Adriamycin, as described in Example III, infra. Confluent VSM cells were transfected with oligonucleotide in the concentration indicated, left in serum-containing media overnight, and exposed to (A) ionizing radiation (12 Gy) or (B) Adriamycin where indicated. 4 hours later, activation of caspase-3 was assessed by Western blotting. The arrowhead indicates the cleavage product of caspase-3 signifying its processing as an early step in apoptosis. Wortmannin (wort) is a positive control for apoptosis. […] The experiment shown is representative of two separate experiments.
Western blots: Cells were grown to confluence in 6 cm culture dishes and serum deprived. After transfection and or treatment with appropriate agonist, conditioned medium was removed and saved and the cells were washed with phosphate-buffered saline and lysed in lysis buffer. Both supernatant and cell lysate were normalized to the lysate protein concentrations and Western blotted as described (Weiss R H, et al. Am J Physiol 274:C1521-C1529, 1998).
In order to determine whether the potentiation of ionizing radiation and Adriamycin induced DNA synthesis inhibition by p21 antisense oligonucleotides is accompanied by apoptosis, caspase-3 activation in response to ionizing radiation was examined. Caspase-3 is an effector caspase whose activation (leading to apoptosis) results in a 20 kD cleavage product which can be assessed by Western blotting (McCarthy N J, Evan G I. Curr Top Dev Biol 36:259-278, 1998). This process is an early event in a cascade of reactions which ultimately leads to apoptosis, as is evident by the fact that inactivation of caspase-3 dramatically reduces apoptosis in several cell lines (Woo M, et al. Genes Dev 12:806-819, 1998).
VSM cells were transfected with antisense or control oligonucleotides overnight and then stimulated with ionizing radiation.
For orientation: A western blot detects proteins with antibodies after separation by electrophoresis.

In data set [3] the test system is Met-1 cells. Briefly: Growth of Met-1 cells in culture. Format: cell-based, mouse. Conditions: transfection.
Data set [4] has as its system A10 VSM cells. Briefly: [3H]thymidine incorporation (DNA synthesis) in A10 VSM cells. Format: cell-based, rat. (Incorporation of labelled thymidine or its analogues reports DNA synthesis.)
The test system of data set [5] is p27^Kip1. Briefly: p27Kip1 protein level by Western blot in A10 VSM cells. Format: cell-based, rat. The conditions noted are these: PMA for 4 hours. How it is done: Western blots: Cells were grown to confluence in 6 cm culture dishes and serum deprived. After transfection and or treatment with appropriate agonist, the cells were washed with phosphate-buffered saline and lysed in lysis buffer and the supernatant was Western blotted as described (Weiss et al., 1998 Am. J. Physiol., 274, p. C1521-C1529).
To check for specificity of protein inhibition by the antisense p21^Waf1/Cip1 oligodeoxynucleotide (SEQ. ID NO.: 1), protein levels of p21^Waf1/Cip1 and p27^Kip1 after transfection with antisense p21^Waf1/Cip1 oligodeoxynucleotide (SEQ. ID NO.:1) were examined. In these experiments the ability of antisense oligodeoxynucleotides (SEQ. ID NO.:1) to inhibit maximally stimulated CKI expression (see FIG. 4) was assessed. The cells were stimulated with PMA for 4 hours at various times after overnight serum starvation.
At the times indicated after the overnight incubation (in hours), the medium was changed to quiescence medium and the cells were stimulated with PMA for 4 hours to show maximal p21^Waf1/Cip1 expression (FIG. 6a). The lysates were immunoblotted with (a) p21^Waf1/Cip1 or p27^Kip1 antibody or (b) α-actin antibody. […]

In data set [6] the test system is VSM cells. Nature of the data set: Apoptosis by Hoechst 33258 staining in VSM cells. The conditions noted are these: 24 hours after transfection. It counts as cell-based, rat. How it is done: FIG. 20A-D show how the antisense oligonucleotide to p21 induces VSM cell apoptosis, as described in Example III, infra. VSM cells were grown on glass cover slips and transfected with (A,B) random sequence control oligonucleotide to p21 or (C,D) antisense oligonucleotide. 24 hours later, the cells were fixed and stained in situ with Hoechst 33258. Representative microscopic fields were photographed under (A,C) visual or (B,D) UV light at 40×.
Apoptosis assays: Cells were grown on collagen-coated coverslips, and transfected as stated above. 16-24 hours after transfection, cells were exposed to 12 Gy dose of γ-irradiation or 0.5 μM wortmannin. 24 hours later, cells were fixed in 3.7% formaldehyde (diluted in PBS) for 10 minutes. The cells were rinsed with cold PBS and permeabilized using 0.1% Triton X-100 (diluted in deionized water) for 5 minutes. Rinsed again with PBS, the cells on the coverslips were submerged in Hoechst Staining solution (3.0 μl in 37.5 ml deionized water) for 5 minutes. Cells were given a final three rinses with cold PBS before being mounted in polyvinyl alcohol mounting medium. Cell nuclei were visualized using a ZEISS WL Microscope and photographed under 40×.
As another measure of apoptosis, transfected cells fixed and stained with Hoechst 33258 were examined.

“5′-ATC-CCC-AGC-CGG-TTC-TGA-CAT-3′ (antisense ATCCCCAGCCGGTTCTGACAT; listed as DNA, chemistry not fully specified) [antisense p21 ODN]”: in data set [1], the nuclear morphology result was “nuclear morphological changes consistent with apoptosis”.
As to 5′-GACATCACCAGGATCGGACAT-3′, the caspase-3 activation entry in data set [2] (Adriamycin experiment (FIG. 19b)) is “caspase-3 activation was observed”; in data set [2] (alone or after ionizing radiation 12 Gy, 4 hours), “impressive increase”. Also, the “growth of Met-1 cells in culture” value in data set [3] is recorded as “did not affect growth”. Further, the “PDGF-stimulated DNA synthesis” value in data set [4] (A10 VSM cells, 200 nM oligodeoxynucleotide lipofected, PDGF-BB 30 ng/ml 18 hours) was “Significant inhibition”. Besides, in data set [4] (A10 VSM cells, 10% serum), the “DNA synthesis relative to control oligodeoxynucleotide” value was “markedly inhibited”. For the same substance, in data set [4] (A10 VSM cells, increasing oligodeoxynucleotide concentration up to 200 nM), the “PDGF-stimulated DNA synthesis, dose/response” value is recorded as “inhibition of DNA synthesis with increasing concentration”. For the same substance, the “effects of irradiation on cell cycle arrest (DNA synthesis)” value in data set [4] (VSM cells, 1 to 12 Gy, maximum potentiation at 8 Gy) is on record as “potentiated at higher doses of radiation”. Moreover, in data set [4] (VSM cells, 12 Gy), the “potentiation of irradiation effect at 12 Gy” value is reported as “did not reach statistical significance”. Moreover, in data set [4] (VSM cells, 1000 to 2000 ng/ml Adriamycin), the “potentiation of Adriamycin growth inhibition” value is reported as “significant potentiation”. For the same substance, the “cell growth (DNA synthesis) stimulated with PDGF-BB and serum” value in data set [4] (VSM cells, similar oligodeoxynucleotide concentrations (FIG. 9d)) is on record as “inhibited”. Further, in data set [4] (confluent VSM cells in serum-containing medium), the “DNA synthesis in non-irradiated cells” value is on record as “marked inhibition”. In addition, the “p27^Kip1 protein” value in data set [5] is recorded as “slight decrease”. Further, in data set [6], the “apoptotic changes (Hoechst 33258)” value is “extensive apoptotic changes”.
